Among the data in patent US9220264B2, “Multimeric forms of antimicrobial peptides” (Singapore Health Services Pte Ltd., priority 2008, dated 2015) are MIC values, retold here.

SMILES strings stand for the structures. Values after ≈ are worked out from the molar mass of the structure shown. Bridge positions count the residues as written; N and C are the ends. Peptide text beside a SMILES is read from it. I, II: the chains in the order shown. Some results are limits rather than exact numbers.

For assay [1], the system named is Clinical Cadida albicans DF2672R Source: Urine. In kind it is cell-based, Candida albicans. As to the method:
(§1) MICs was determined by broth macrodilution method modified from that described by the National Committee for Clinical Laboratory Standards (NCCL). The Mueller Hinton Broth (MHB) at ⅙ strength and without addition of Ca^2+ and Mg^2+ was used for dilution. Serial twofold dilutions of V2 dimer solution was prepared in MHB (⅙ strength) in test tubes. 1 ml of inoculum of test organisms in MHB (⅙ strength) was added to 1 ml of each dilution of V2 dimer to yield as final concentration of 10^4 to 10^5 colony forming units/ml in each test tube. The tubes were incubated at 35° C. for 16 to 20 hours. A positive control containing only the broth and organism, and a negative control tube containing only the broth were also incubated in parallel to the test samples. The above was repeated for each different test organism in separate experiments. The MIC of V2 dimer peptide for each clinical isolate or reference organism was read as the lowest concentration of peptide that inhibited visible growth of the test organism.
(§2) The MIC was also determined for other peptides and compared to gentamicin.

Assay [2] deals with Clinical Pseudomonas aeruginosa 07DM023376 Source: Eye. The format is cell-based. The note with it: Clinical 07DM023376 Source: Eye. As to the method:
as §1, §2

Assay [3] concerns Clinical Pseudomonas aeruginosa PAE 239 DM5790/07 Source: Wound. In kind it is cell-based. The note with it: Clinical PAE 239 DM5790/07 Source: Wound. The procedure:
as §1, §2

Assay [4] deals with Candida albicans ATCC10231. In kind it is cell-based. As to the method:
as §1, §2

In assay [5] the test system is Clinical Pseudomonas aeruginosa PAE 230 DR4877/07 Source: Sputum. The format is cell-based. The conditions noted are these: Clinical PAE 230 DR4877/07 Source: Sputum. The procedure: as §1, §2
Assay [6] deals with Fusarium solani ATCC 36031. In kind it is cell-based. As to the method: as §1, §2
The test system of assay [7] is Clinical Pseudomonas aeruginosa PAE 240 DU14476/07 Source: Urine. The format is cell-based. The conditions noted are these: Clinical PAE 240 DU14476/07 Source: Urine. As to the method:
as §1, §2

Assay [8] deals with Clinical Staphylococcus aureus DM4001 Source: Eye. In kind it is cell-based. As to the method:
as §1, §2

Assay [9] has as its system Clinical Escherichia coli DB16027 Source: Blood. The format is cell-based. The conditions noted are these: Clinical DB16027 Source: Blood. The procedure: as §1, §2
Assay [10] has as its system Clinical Pseudomonas aeruginosa PAE 249 DM15013 Source: Wound. In kind it is cell-based. The conditions noted are these: Clinical PAE 249 DM15013 Source: Wound. The procedure:
as §1, §2

For assay [11], the system named is Clinical Pseudomonas aeruginosa 07DM 023257 Source: Eye. In kind it is cell-based. The note with it: Clinical 07DM 023257 Source: Eye. The procedure: as §1, §2
In assay [12] the test system is Clinical Pseudomonas aeruginosa DM 023155 Source: Eye. In kind it is cell-based. The note with it: Clinical DM 023155 Source: Eye. The procedure:
as §1, §2

Assay [13] deals with Clinical Escherichia coli DU46381R Source: Urine. The format is cell-based. As to the method: as §1, §2
In assay [14] the test system is Clinical Pseudomonas aeruginosa DM 023104 Source: Eye. In kind it is cell-based. The note with it: Clinical DM 023104 Source: Eye. The procedure: as §1, §2
Assay [15] has as its system Escherichia coli ATCC25922. In kind it is cell-based. As to the method:
as §1, §2

As usually defined, the MIC is the lowest concentration found to suppress growth. For `CC(C)[C@H](NC(=O)[C@@H](NC(=O)[C@H](CCCNC(=N)N)NC(=O)[C@H](CCCNC(=N)N)NC(=O)[C@@H](NC(=O)[C@@H](NC(=O)[C@H](CCCCN)NC(=O)[C@H](CCCNC(=N)N)NC(=O)CNC(=O)[C@@H](N)CCCNC(=N)N)C(C)C)C(C)C)C(C)C)C(=O)O` [V4 monomer, RGRKVVRRVV] (H-RGRKVVRRVV-OH; N-terminus and C-terminus assumed), the minimal inhibitory concentration (MIC) in assay [1] is more than 50 µg/mL; in assay [2], more than 50 µg/mL; in assay [3] it was more than 50 µg/mL; in assay [4], 25 µg/mL (≈ 20.4 µM); in assay [5] it was more than 50 µg/mL; in assay [6], more than 100 µg/mL. Also, the minimal inhibitory concentration (MIC) in assay [7], in assay [8], in [9], in assay [10], in [11] and in assay [12] was more than 50 µg/mL in each case. Besides, the minimum inhibitory concentration (MIC) in assay [13], in assay [14] and in [15] was more than 50 µg/mL throughout.
Regarding `N=C(N)NCCC[C@H](NC(=O)CNC(=O)[C@@H](N)CCCNC(=N)N)C(=O)N[C@@H](CCCCN)C(=O)N[C@@H](Cc1c[nH]c2ccccc12)C(=O)N[C@@H](Cc1c[nH]c2ccccc12)C(=O)N[C@@H](CCCNC(=N)N)C(=O)N[C@@H](CCCNC(=N)N)C(=O)NCCCC[C@H](NC(=O)[C@H](CCCNC(=N)N)NC(=O)[C@H](CCCNC(=N)N)NC(=O)[C@H](Cc1c[nH]c2ccccc12)NC(=O)[C@H](Cc1c[nH]c2ccccc12)NC(=O)[C@H](CCCCN)NC(=O)[C@H](CCCNC(=N)N)NC(=O)CNC(=O)[C@@H](N)CCCNC(=N)N)C(=O)N[C@@H](CCCCN)C(=O)O` [W2-dimer] (I: H-RGRKWWRRKK-OH / II: H-RGRKWWRR; amide I:9-II:C; N-terminus assumed), the MIC in assay [1] stood at 12.5 µg/mL (≈ 4.74 µM); in assay [2] it was 25 µg/mL (≈ 9.47 µM); in assay [3] it was 12.5 µg/mL (≈ 4.74 µM); in assay [4], 12.5 µg/mL (≈ 4.74 µM); in assay [5] it was 12.5 µg/mL (≈ 4.74 µM); in assay [6], 12.5 µg/mL (≈ 4.74 µM). In addition, the minimum inhibitory concentration (MIC) in assay [7] amounted to 12.5 µg/mL (≈ 4.74 µM); in assay [8] it was 12.5 µg/mL (≈ 4.74 µM); in assay [9], 12.5 µg/mL (≈ 4.74 µM); in assay [10], 6.25 µg/mL (≈ 2.37 µM); in [11], 12.5 µg/mL (≈ 4.74 µM); in assay [12] it was 12.5 µg/mL (≈ 4.74 µM). The MIC in assay [13] turned out to be 6.25 µg/mL (≈ 2.37 µM); in assay [14], 12.5 µg/mL (≈ 4.74 µM); in assay [15], 25 µg/mL (≈ 9.47 µM).
Turning to `N=C(N)NCCC[C@H](NC(=O)CNC(=O)[C@@H](N)CCCNC(=N)N)C(=O)N[C@@H](CCCCN)C(=O)N[C@@H](Cc1ccc(O)cc1)C(=O)N[C@@H](Cc1ccc(O)cc1)C(=O)N[C@@H](CCCNC(=N)N)C(=O)N[C@@H](CCCNC(=N)N)C(=O)NCCCC[C@H](NC(=O)[C@H](CCCNC(=N)N)NC(=O)[C@H](CCCNC(=N)N)NC(=O)[C@H](Cc1ccc(O)cc1)NC(=O)[C@H](Cc1ccc(O)cc1)NC(=O)[C@H](CCCCN)NC(=O)[C@H](CCCNC(=N)N)NC(=O)CNC(=O)[C@@H](N)CCCNC(=N)N)C(=O)N[C@@H](CCCCN)C(=O)O` [Y2-dimer] (I: H-RGRKYYRRKK-OH / II: H-RGRKYYRR; amide I:9-II:C; N-terminus assumed), the MIC in assay [1] was 12.5 µg/mL (≈ 4.91 µM); in [2], 25 µg/mL (≈ 9.82 µM); in assay [3], 12.5 µg/mL (≈ 4.91 µM); in assay [4], 25 µg/mL (≈ 9.82 µM); in assay [5], 12.5 µg/mL (≈ 4.91 µM); in assay [6], 12.5 µg/mL (≈ 4.91 µM). The minimal inhibitory concentration (MIC) is 6.25 µg/mL (≈ 2.45 µM) in assay [7]; 12.5 µg/mL (≈ 4.91 µM) in assay [8]; 6.25 µg/mL (≈ 2.45 µM) in [9]; 12.5 µg/mL (≈ 4.91 µM) in assay [10]; 12.5 µg/mL (≈ 4.91 µM) in [11]; 25 µg/mL (≈ 9.82 µM) in assay [12]. Further, the minimal inhibitory concentration (MIC) in [13], in assay [14] and in assay [15] was 12.5 µg/mL (≈ 4.91 µM) each time.
Consider `N=C(N)NCCC[C@H](NC(=O)[C@H](CCCNC(=N)N)NC(=O)[C@H](Cc1c[nH]c2ccccc12)NC(=O)[C@H](Cc1c[nH]c2ccccc12)NC(=O)[C@H](CCCCN)NC(=O)[C@H](CCCNC(=N)N)NC(=O)CNC(=O)[C@@H](N)CCCNC(=N)N)C(=O)O` [W2-8AA, RGRKWWRR] (H-RGRKWWRR-OH; N-terminus and C-terminus assumed), for which the MIC in [1] is 12.5 µg/mL (≈ 10.4 µM); in assay [2], 25 µg/mL (≈ 20.8 µM); in assay [3] it was more than 50 µg/mL; in assay [4] it was 12.5 µg/mL (≈ 10.4 µM); in [5], more than 50 µg/mL; in [6], 25 µg/mL (≈ 20.8 µM). The MIC in assay [7] was 12.5 µg/mL (≈ 10.4 µM); in [8] it was 12.5 µg/mL (≈ 10.4 µM); in assay [9], 6.25 µg/mL (≈ 5.21 µM); in [10] it was 50 µg/mL (≈ 41.7 µM); in assay [11], more than 50 µg/mL; in assay [12] it was 50 µg/mL (≈ 41.7 µM). The results for the minimum inhibitory concentration (MIC) in assay [13], in assay [14] and in assay [15] were 6.25 µg/mL (≈ 5.21 µM), 25 µg/mL (≈ 20.8 µM) and 12.5 µg/mL (≈ 10.4 µM), respectively.
For the molecule `CC(C)[C@H](NC(=O)[C@H](CCCCN)NC(=O)[C@H](CCCNC(=N)N)NC(=O)CNC(=O)[C@@H](N)CCCNC(=N)N)C(=O)N[C@H](C(=O)N[C@@H](CCCNC(=N)N)C(=O)N[C@@H](CCCNC(=N)N)C(=O)O)C(C)C` [V2-8AA, RGRKVVRR] (H-RGRKVVRR-OH; N-terminus and C-terminus assumed), the MIC in [1] was more than 50 µg/mL; in assay [2] it was more than 50 µg/mL; in assay [3], more than 50 µg/mL; in [4], more than 50 µg/mL; in [5], more than 50 µg/mL; in [6], more than 100 µg/mL. Besides, the MIC is 25 µg/mL (≈ 24.4 µM) in assay [7]; more than 50 µg/mL in [8]; more than 50 µg/mL in assay [9]; more than 50 µg/mL in assay [10]; more than 50 µg/mL in assay [11]; more than 50 µg/mL in assay [12]. In addition, the MIC is 50 µg/mL (≈ 48.7 µM) in [13], more than 50 µg/mL in assay [14] and more than 50 µg/mL in assay [15].
For the molecule `N=C(N)NCCC[C@H](NC(=O)CNC(=O)[C@@H](N)CCCNC(=N)N)C(=O)N[C@@H](CCCCN)C(=O)N[C@@H](Cc1ccc(O)cc1)C(=O)N[C@@H](Cc1ccc(O)cc1)C(=O)N[C@@H](CCCNC(=N)N)C(=O)N[C@@H](CCCNC(=N)N)C(=O)N[C@@H](Cc1ccc(O)cc1)C(=O)N[C@@H](Cc1ccc(O)cc1)C(=O)O` [Y4 monomer, RGRKYYRRYY] (H-RGRKYYRRYY-OH; N-terminus and C-terminus assumed), the MIC is 25 µg/mL (≈ 16.9 µM) in assay [1]; more than 50 µg/mL in assay [2]; 50 µg/mL (≈ 33.8 µM) in assay [3]; 12.5 µg/mL (≈ 8.44 µM) in assay [4]; more than 50 µg/mL in assay [5]; 12.5 µg/mL (≈ 8.44 µM) in assay [6]. For the same molecule, the MIC in assay [7] is 25 µg/mL (≈ 16.9 µM); in [8], 12.5 µg/mL (≈ 8.44 µM); in assay [9] it was 6.25 µg/mL (≈ 4.22 µM); in assay [10], 50 µg/mL (≈ 33.8 µM); in [11], more than 50 µg/mL; in [12] it was 25 µg/mL (≈ 16.9 µM). The figures for the MIC in assay [13], in assay [14] and in assay [15] were 12.5 µg/mL (≈ 8.44 µM), 50 µg/mL (≈ 33.8 µM) and 12.5 µg/mL (≈ 8.44 µM), respectively.
